Patent EP1996603B1, “LIPID A ANTAGONISTS WITH ANTI-SEPTIC SHOCK, ANTI-INFLAMMATORY, ANTI-ISCHEMIA AND ANALGESIC ACTIVITY” (Università Degli Studi Di Milano - Bicocca, priority 2006, dated 2007)
“Also recorded” adds a separate entry of the source.

How the values were obtained:
TLR9 [1] = molecular target: T1, TLR9 (Homo sapiens, UniProt Q9NR96); test: NF-kB activation in HEK-293 cells transfected with TLR9, stimulated with CpG; format: cell-based; conditions: TLR9-transfected HEK 293; CpG (0.5 µM); maximal dose of 50 µM; measured 2 h later
T1 construct: host or cells: HEK-293 (HEK-293-hTLR9A)
T1 sequence (Q9NR96 26-1032): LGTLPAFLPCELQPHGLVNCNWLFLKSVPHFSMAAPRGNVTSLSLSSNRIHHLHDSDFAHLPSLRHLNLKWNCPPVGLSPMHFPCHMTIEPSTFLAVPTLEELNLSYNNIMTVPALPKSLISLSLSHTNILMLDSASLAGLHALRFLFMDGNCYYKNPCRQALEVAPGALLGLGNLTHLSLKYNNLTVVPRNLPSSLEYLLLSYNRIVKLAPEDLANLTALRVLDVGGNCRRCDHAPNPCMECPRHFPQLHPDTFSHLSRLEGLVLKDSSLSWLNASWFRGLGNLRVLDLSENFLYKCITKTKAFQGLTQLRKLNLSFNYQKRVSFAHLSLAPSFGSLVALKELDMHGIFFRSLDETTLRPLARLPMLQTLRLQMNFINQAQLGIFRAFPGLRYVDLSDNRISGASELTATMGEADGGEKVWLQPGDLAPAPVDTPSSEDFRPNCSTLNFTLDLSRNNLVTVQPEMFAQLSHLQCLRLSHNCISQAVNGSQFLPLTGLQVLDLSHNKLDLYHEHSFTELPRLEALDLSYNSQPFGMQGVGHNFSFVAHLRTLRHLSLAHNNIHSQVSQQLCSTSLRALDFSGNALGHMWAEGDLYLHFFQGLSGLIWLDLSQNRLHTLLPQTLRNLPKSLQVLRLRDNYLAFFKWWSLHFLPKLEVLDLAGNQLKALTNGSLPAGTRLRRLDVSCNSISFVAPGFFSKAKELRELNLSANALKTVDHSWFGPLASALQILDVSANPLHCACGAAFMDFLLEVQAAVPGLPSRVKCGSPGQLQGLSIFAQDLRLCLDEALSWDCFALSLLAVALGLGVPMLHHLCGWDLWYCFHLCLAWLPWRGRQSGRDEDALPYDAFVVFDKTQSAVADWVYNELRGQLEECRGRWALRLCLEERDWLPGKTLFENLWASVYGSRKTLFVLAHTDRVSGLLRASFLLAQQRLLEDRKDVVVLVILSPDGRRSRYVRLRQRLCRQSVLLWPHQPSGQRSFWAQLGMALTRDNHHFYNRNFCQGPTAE
Method: (§1) • Figure 1. Antagonistic activity of compounds Ia, Ic and Id on lipid A-stimulated cytokine production in BMDC, BMØ and D1 cells. TNFα production was measured in the supernatants 24 h later. From the right: lipid A (0.5µM), cells treated with lipid A alone; DMSO: cells incubated in the presence of complete medium plus DMSO; inhibitor 50 µM, cells treated only with monosaccharides Ia, Ic and Id; other columns, lipid A + compounds […] at increasing doses. The data represent means and standard deviations of triplicate wells. This is a representative of three independent experiments. *, p < 0.05; **, p < 0.01; ***, p< 0.001. • Figure 2. TLR-4 selectivity of monosaccharide Id. […] IL-1β was measured in the supernatants by ELISA. […] Lower panels, TNFα production measured by ELISA 24 h after stimulation with CpG (selective for TLR-9) or PAM3Cys-SK4 (selective for TLR-2) in the presence of compound Id. […] The cells were then analyzed by FACS for the presence of annexin V and propidium iodide (PI) double positive cells. […] NF-kB activation was evaluated in the nuclear extract 2 h later and expressed as optical density (OD) at 450 nm. […] Effect of different doses of compound Id on carrageenan induced edema in mice measured 4h after the exposure and expressed as difference between the paw volume of treated paw versus the contralateral paw. […]

TLR9 [2] = test: TNFα production after stimulation with CpG (TLR9 selectivity); format: cell-based, Mouse; conditions: stimulation through CpG, recognized by TLR9
Method: as §1

DC and MΦ = test: Cytotoxicity: PI test and annexin V test by FACS; format: cell-based; conditions: 10 to 100 µM, 48 h incubation, 24 h in Figure 3 legend
Method: as §1

[3] = Solubility in the aqueous media used in the tests; format: physicochemical; conditions: compared with Ia and Ic

CCCCCCCCCCCCCCO[C@H]1[C@@H](OC)O[C@H](C[N+](C)(C)C2CCCC2)[C@@H](O)[C@@H]1OCCCCCCCCCCCCCC [Compound Id, methyl 6-deoxy-6-N,N',N"-dimethylcyclopentylammonium-2,3-di-O-tetradecyl-α-D-glucopyranoside]
NF-kB activation (TLR9 [1]): inactive | TNFα production (TLR9 [2]): not inhibited | percent of dead cells (DC and MΦ): does not induce death of MΦ and DC; also recorded: Neither DC nor MΦ showed an appreciable percent of dead cells | solubility in the aqueous media used in the tests [3]: highest solubility
